Assay results: the supplement of paper PMC10307832

How the values were obtained:
Experiment in all cases: relative viability (nuclei count vs DMSO), 5 days (fraction); higher = more cells survive
BAM7 + Foretinib = compound: CCOC1=CC=CC=C1N=NC2=C(NN(C2=O)C3=NC(=CS3)C4=CC=CC=C4)C [BAM7] + COc1cc2c(Oc3ccc(NC(=O)C4(C(=O)Nc5ccc(F)cc5)CC4)cc3F)ccnc2cc1OCCCN1CCOCC1 [Foretinib] (partner 0.25 µM)
Procedure, shortened: (§1)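 Lung cancer cell lines were seeded in 1536-well plates and dosed by pin tool the next day, with either a single drug or a fixed anchor-drug dose combined with five library-drug doses (not always all listed) spaced in √10 steps. Five days later, one step fixed the cells and stained their nuclei (final 0.05% Triton X-100, 1% formaldehyde, 1 ug/ml Hoechst), and nuclei were counted on 4× images. Relative viability is the nuclei count in treated wells divided by the count in vehicle wells, and each value is the median of duplicate plates.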

BAM7 + Vorinostat = compound: CCOC1=CC=CC=C1N=NC2=C(NN(C2=O)C3=NC(=CS3)C4=CC=CC=C4)C [BAM7] + O=C(CCCCCCC(=O)Nc1ccccc1)NO [Vorinostat] (partner 1 µM)
Procedure, shortened: as §1

[1] = compound: CCn1c(-c2nonc2N)nc2c(C#CC(C)(C)O)ncc(OC[C@H]3CCCNC3)c21 + CC(=O)Nc1cccc(-n2c(=O)n(C3CC3)c(=O)c3c(Nc4ccc(I)cc4F)n(C)c(=O)c(C)c32)c1 [Trametinib] (partner 0.02 µM)
Procedure, shortened: as §1

[2] = compound: CCn1c(-c2nonc2N)nc2c(C#CC(C)(C)O)ncc(OC[C@H]3CCCNC3)c21 + CC1(C)CCC(c2ccc(Cl)cc2)=C(CN2CCN(c3ccc(C(=O)NS(=O)(=O)c4ccc(N[C@H](CCN5CCOCC5)CSc5ccccc5)c(S(=O)(=O)C(F)(F)F)c4)cc3)CC2)C1 [Navitoclax] (partner 0.5 µM)
Procedure, shortened: as §1

| Cell Line | relative viability (BAM7 + Foretinib; first compound 0.5 µM) | relative viability (BAM7 + Foretinib; first compound 5 µM) | relative viability (BAM7 + Foretinib; first compound 15.81 µM) | relative viability (BAM7 + Foretinib; first compound 50 µM) | relative viability (BAM7 + Vorinostat; first compound 0.5 µM) | relative viability (BAM7 + Vorinostat; first compound 5 µM) | relative viability (BAM7 + Vorinostat; first compound 15.81 µM) | relative viability (BAM7 + Vorinostat; first compound 50 µM) | relative viability ([1]; first compound 0.01 µM) | relative viability ([1]; first compound 0.03162 µM) | relative viability ([1]; first compound 0.1 µM) | relative viability ([1]; first compound 0.3162 µM) | relative viability ([1]; first compound 1 µM) | relative viability ([2]; first compound 0.01 µM) | relative viability ([2]; first compound 0.03162 µM) | relative viability ([2]; first compound 0.1 µM) | relative viability ([2]; first compound 0.3162 µM) | relative viability ([2]; first compound 1 µM) |
| --- | --- | --- | --- | --- | --- | --- | --- | --- | --- | --- | --- | --- | --- | --- | --- | --- | --- | --- |
| SK-MES-1 | 0.913 | 1.06 | 0.937 | 1.08 | 1.04 | 1.06 | 1.05 | 1.04 | 0.61 | 0.52 | 0.569 | 0.465 | 0.503 | 1.22 | 1.22 | 1.18 | 1.22 | 1.2 |
| SW 1573 | 0.939 | 0.997 | 1.04 | 0.966 | 0.715 | 0.735 | 1.06 | 0.606 | 0.438 | 0.553 | 0.476 | 0.381 | 0.33 | 0.895 | 0.859 | 0.934 | 0.943 | 0.735 |
